Experimental findings from ChEMBL document CHEMBL1201862, “PubChem BioAssay data set” (2004) are described below.

The structures appear in SMILES notation.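 Briefly, cells in 96-well plates were exposed to five compound concentrations for 48 h, and endpoints were estimated by linear interpolation. GI50 marks 50% less growth.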 The source made the active and inactive calls. Rule as the data show it: active = GI50 up to about 1.1 µM and inactive = higher.

Holding throughout (experiment): NCI anticancer screen, dose series, 48 h
The test system of experiment [1] is NCI-H522.
For experiment [2], the system named is IGROV-1.
Experiment [3] relates to T47D.
For experiment [4], the system named is OVCAR-8.
In experiment [5] the test system is HCC 2998.
Experiment [6] has as its system MOLT-4.
Experiment [7] concerns SNB-75.
In experiment [8] the test system is CCRF-CEM.
For experiment [9], the system named is NCI-H23.
In experiment [10] the test system is HT-29.
Experiment [11] relates to MDA-MB-231.
The test system of experiment [12] is SF-268.
In experiment [13] the test system is UACC-257.
Experiment [14] concerns TK-10.
For experiment [15], the system named is M14.
For experiment [16], the system named is HL-60.
The test system of experiment [17] is EKVX.
Experiment [18] concerns NCI/ADR-RES.
In experiment [19] the test system is HOP-62.
Experiment [20] has as its system SF-539.

Regarding `CCOC(=O)c1c(SCCN2CCOCC2)n(-c2ccccc2)c(=S)n(-c2ccccc2)c1=O`, the GI50 in experiment [1] is 43.7 µM (inactive); in [2] it was 42.5 µM (inactive); in experiment [3] it was 31.8 µM (inactive); in experiment [4], > 100 µM (inactive); in experiment [5] it was > 100 µM (inactive); in experiment [6], 26.7 µM (inactive). Further, the GI50 in experiment [7] is 76.2 µM (inactive); in experiment [8], 30.1 µM (inactive); in [9], 32.4 µM (inactive); in experiment [10] it was 19.5 µM (inactive); in [11] it was 44 µM (inactive); in experiment [12], 37.4 µM (inactive). For the same compound, the GI50 was 25.8 µM (inactive) in experiment [13], > 100 µM (inactive) in [14], 44.8 µM (inactive) in [15] and 20.8 µM (inactive) in experiment [16].

In the case of `CC(CN(C)C)C(=O)c1ccccc1C(=O)O` (stereo not drawn), the GI50 in experiment [17] was 51.1 µM (inactive); in experiment [1] it was 10.7 µM (inactive); in [18] it was 29.1 µM (inactive); in experiment [2] it was 44 µM (inactive); in experiment [19] it was 20.6 µM (inactive); in experiment [3], 37.1 µM (inactive). Also, the GI50 is 30.3 µM (inactive) in [4]; 20.4 µM (inactive) in experiment [6]; 10.1 µM (inactive) in experiment [8]; 26.5 µM (inactive) in [9]; 38.7 µM (inactive) in experiment [10]; 18.8 µM (inactive) in [11]. Further, the GI50 in [12] was 14.1 µM (inactive); in [14], 19.5 µM (inactive); in experiment [15] it was 26.4 µM (inactive); in experiment [16] it was 22.7 µM (inactive).

Turning to `c1ccc2cc(CNCCOCCOCCNCc3ccc4ccccc4c3)ccc2c1`, the GI50 in experiment [17] was 2.54 µM (inactive); in experiment [1], 1.83 µM (inactive); in [2] it was 1.7 µM (inactive); in experiment [19] it was 1.85 µM (inactive); in experiment [3] it was 2.74 µM (inactive); in experiment [4], 1.77 µM (inactive). The GI50 in experiment [5] was 0.208 µM (active); in experiment [6], 1.92 µM (inactive); in experiment [7], 1.95 µM (inactive); in experiment [8], 1.97 µM (inactive); in experiment [9], 2 µM (inactive); in experiment [10], 1.31 µM (inactive). Besides, the GI50 in experiment [11] was 1.57 µM (inactive); in experiment [12] it was 1.97 µM (inactive); in experiment [13], 1.49 µM (inactive); in experiment [14], 1.62 µM (inactive); in [15], 1.95 µM (inactive); in experiment [20] it was 1.85 µM (inactive). Besides, in [16], the GI50 was 1.85 µM (inactive).

As for `Cn1nc(-c2ccccc2)c2c(-c3ccccc3)c3cc(Cl)ccc3nc21`, the GI50 was > 100 µM (inactive) in experiment [17]; 45 µM (inactive) in [1]; > 100 µM (inactive) in experiment [2]; > 100 µM (inactive) in experiment [19]; > 100 µM (inactive) in [3]; > 100 µM (inactive) in [4]. The GI50 is > 100 µM (inactive) in experiment [5]; 15.8 µM (inactive) in [6]; > 100 µM (inactive) in experiment [7]; 0.0311 µM (active) in experiment [8]; > 100 µM (inactive) in [9]; 49.3 µM (inactive) in [10]. Besides, the GI50 is > 100 µM (inactive) in experiment [11]; > 100 µM (inactive) in [12]; > 100 µM (inactive) in [13]; > 100 µM (inactive) in experiment [14]; > 100 µM (inactive) in [15]; 18.2 µM (inactive) in [16].

`CC1CCCC2=C1C(c1ccc(Cl)cc1)n1c(s/c(=C\c3ccc(Cl)cc3)c1=O)=N2` (stereo not drawn): the GI50 in experiment [17], in experiment [2], in [19], in experiment [3], in experiment [4] and in [7] was > 100 µM (inactive) each time. The GI50 in [8], in [10], in experiment [11], in experiment [12], in experiment [13] and in [14] was > 100 µM (inactive) each time. The GI50 in experiment [15] is > 100 µM (inactive).

Consider `Cc1cc2c(cc1C)C(=O)/C(=C/c1ccccc1C(=O)O)C2`, for which the GI50 in experiment [17] is 50.7 µM (inactive); in experiment [1], 65.6 µM (inactive); in experiment [18], 54.8 µM (inactive); in [2] it was > 100 µM (inactive); in [19], 42.4 µM (inactive); in experiment [3], 47.8 µM (inactive). In addition, the GI50 in experiment [4] is 38.4 µM (inactive); in [5] it was 27.4 µM (inactive); in [6], 25.4 µM (inactive); in experiment [7], 30 µM (inactive); in experiment [8] it was 30.9 µM (inactive); in experiment [9], 19.6 µM (inactive). Besides, the GI50 in experiment [10] was 39.1 µM (inactive); in experiment [12] it was 31.8 µM (inactive); in experiment [13], > 100 µM (inactive); in experiment [14], > 100 µM (inactive); in experiment [15], > 100 µM (inactive); in experiment [20], 18.7 µM (inactive). Also, the GI50 in [16] is 30.5 µM (inactive).

As to `Cc1ccc(NC(=O)NC(=O)c2ccc([N+](=O)[O-])cc2[N+](=O)[O-])cc1Oc1ncc(Cl)cn1`, the GI50 in [17] was > 10 µM (inactive); in experiment [1], 0.195 µM (active); in [2] it was 1.13 µM (inactive); in [19], 0.277 µM (active); in experiment [3], 12.7 µM (inactive); in experiment [4], 0.468 µM (active). Besides, the GI50 was 0.271 µM (active) in experiment [5]; 0.362 µM (active) in [6]; 0.0752 µM (active) in [7]; 0.292 µM (active) in experiment [8]; 0.564 µM (active) in experiment [9]; 0.3 µM (active) in [10]. Besides, the GI50 is 0.614 µM (active) in [11]; 0.713 µM (active) in experiment [12]; 0.689 µM (active) in experiment [13]; 14.4 µM (inactive) in experiment [14]; 0.38 µM (active) in experiment [15]; 0.287 µM (active) in experiment [20]. Besides, the GI50 in [16] was 0.218 µM (active).

As to `CN(C(=O)[C@@H](NC(=O)OC(C)(C)C)c1ccccc1)[C@H]1CCCC[C@@H]1N1CCCC1`, the GI50 in [17], in experiment [1], in experiment [18], in [2], in experiment [19] and in experiment [3] was > 100 µM (inactive) in each case. In addition, the GI50 in experiment [4], in experiment [6], in experiment [9], in experiment [10], in experiment [11] and in experiment [12] was > 100 µM (inactive) each time. Further, the GI50 is 72.6 µM (inactive) in [13]; > 100 µM (inactive) in experiment [14]; > 100 µM (inactive) in experiment [15]; > 100 µM (inactive) in experiment [20]; > 100 µM (inactive) in [16].

With `C[C@]12C[C@H](c3ccccc3)Nc3ccccc3N1C(c1ccccc1)=NO2`, the GI50 is 21 µM (inactive) in experiment [17]; > 100 µM (inactive) in experiment [1]; 41.1 µM (inactive) in experiment [18]; > 100 µM (inactive) in experiment [2]; > 100 µM (inactive) in [19]; 85.7 µM (inactive) in experiment [4]. In addition, the GI50 in experiment [5] was > 100 µM (inactive); in [6], 24.5 µM (inactive); in experiment [7], 51.3 µM (inactive); in experiment [8], 67.6 µM (inactive); in experiment [9], 62.1 µM (inactive); in experiment [10] it was 55.2 µM (inactive). Also, the GI50 in experiment [11] is > 100 µM (inactive); in [12] it was > 100 µM (inactive); in [13], 81.5 µM (inactive); in experiment [14], > 100 µM (inactive); in [15] it was 49.2 µM (inactive); in experiment [20] it was > 100 µM (inactive). In addition, the GI50 in experiment [16] is 74.6 µM (inactive).

`CCOC(=O)/C(=C\NCC(OCC)OCC)c1nc2ccccc2[nH]1`: the GI50 in experiment [17] was 27.6 µM (inactive); in experiment [1] it was 21.4 µM (inactive); in experiment [18], 2.02 µM (inactive); in experiment [2] it was 29 µM (inactive); in experiment [19], 31.8 µM (inactive); in experiment [3], 21.6 µM (inactive). The GI50 in [4] was 32.8 µM (inactive); in [5], 20.1 µM (inactive); in experiment [6], 17.1 µM (inactive); in [7] it was 22.2 µM (inactive); in experiment [8], 33.3 µM (inactive); in experiment [9] it was 21.4 µM (inactive). Further, the GI50 was 22.4 µM (inactive) in experiment [10]; 32.6 µM (inactive) in experiment [12]; 25.1 µM (inactive) in experiment [13]; 31.3 µM (inactive) in experiment [14]; 36.1 µM (inactive) in experiment [15]; 26.2 µM (inactive) in experiment [20]. Besides, the GI50 in [16] is 23.9 µM (inactive).

For `COc1ccc(Oc2cccc(C3C4C(=O)N(c5ccc(C)c(Cl)c5)C(=O)C4ON3C(C(N)=O)c3ccccc3)c2)cc1` (stereo not drawn), the GI50 is 10.4 µM (inactive) in [17]; 10.6 µM (inactive) in [1]; 18.8 µM (inactive) in experiment [2]; 35.2 µM (inactive) in [19]; 9.23 µM (inactive) in experiment [3]; 17.5 µM (inactive) in experiment [4]. Moreover, the GI50 was 11.8 µM (inactive) in experiment [6]; 6.08 µM (inactive) in experiment [7]; 14 µM (inactive) in [8]; 8.55 µM (inactive) in experiment [9]; 9.33 µM (inactive) in [10]; 34 µM (inactive) in experiment [11]. Moreover, the GI50 in experiment [12] was 18.3 µM (inactive); in experiment [13] it was 10.7 µM (inactive); in experiment [14], 19.4 µM (inactive); in [15], 13.1 µM (inactive); in experiment [20], 10.4 µM (inactive); in experiment [16], 12.6 µM (inactive).
